Data published in BindingDB's records for patent US20240316020 (Icagen, 2024).

Target: Potassium voltage-gated channel subfamily KQT member 2 (Homo sapiens, UniProt O43526)
Experiment: SyncroPatch 384 (Nanion) High Throughput Electrophysiology
Procedure: Human Kv7.2, Kv7.4 or Kv7.5/7.3 channels were evaluated using a voltage protocol in which cells were voltage-clamped at a holding potential of -60 mV. Potassium currents were continuously activated with a series of three voltage steps to -30 mV for 3 seconds, 40 mV for 1 second and -90 mV for 4 seconds with 12 seconds between successive voltage sweeps. Potassium currents were measured from the -90 mV repolarizing step. Baseline current was assessed for 3.5 minutes prior to the addition of 5.6 uM zinc pyrithione (1 uM for Kv7.4). Kv7.2, Kv7.4 or Kv7.5/7.3 current in the presence of zinc pyrithione was acquired over five minutes to allow channels to reach steady state activity prior to addition of test agents. Channel activity was monitored for three minutes preceding the addition of 30 uM ML-213 (3 minutes) to achieve maximum activation.

Chain of Potassium voltage-gated channel subfamily KQT member 2 (O43526 whole entry): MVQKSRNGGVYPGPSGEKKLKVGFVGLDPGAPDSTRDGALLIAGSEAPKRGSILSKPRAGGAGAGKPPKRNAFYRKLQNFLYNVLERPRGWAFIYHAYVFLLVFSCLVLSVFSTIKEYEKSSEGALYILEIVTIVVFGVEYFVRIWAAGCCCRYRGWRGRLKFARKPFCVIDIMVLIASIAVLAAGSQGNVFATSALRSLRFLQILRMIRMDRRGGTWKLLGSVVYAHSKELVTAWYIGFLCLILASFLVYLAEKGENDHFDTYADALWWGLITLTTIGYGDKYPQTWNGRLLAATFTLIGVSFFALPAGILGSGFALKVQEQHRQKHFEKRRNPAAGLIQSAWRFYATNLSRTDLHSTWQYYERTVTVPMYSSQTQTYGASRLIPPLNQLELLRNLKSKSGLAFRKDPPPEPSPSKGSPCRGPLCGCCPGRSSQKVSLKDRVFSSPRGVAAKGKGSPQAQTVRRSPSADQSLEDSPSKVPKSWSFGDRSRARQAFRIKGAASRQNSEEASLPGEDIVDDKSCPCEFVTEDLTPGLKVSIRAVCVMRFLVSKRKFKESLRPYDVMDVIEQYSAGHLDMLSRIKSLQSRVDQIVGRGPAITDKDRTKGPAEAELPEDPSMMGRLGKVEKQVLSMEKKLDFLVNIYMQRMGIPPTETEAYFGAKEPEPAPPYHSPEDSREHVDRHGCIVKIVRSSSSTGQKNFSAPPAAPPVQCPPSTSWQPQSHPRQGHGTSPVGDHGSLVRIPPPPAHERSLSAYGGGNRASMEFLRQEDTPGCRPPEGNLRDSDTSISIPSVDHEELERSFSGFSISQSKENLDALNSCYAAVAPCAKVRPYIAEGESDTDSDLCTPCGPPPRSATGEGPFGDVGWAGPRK

EC50: 3.63 µM
Structure (SMILES): O=C(NCc1ccnc(-n2cccn2)c1)NC1COC2(CCCC2)C1 (stereo unspecified) [US20240316020, Example 1]
